{"source": "patent US20070196902A1", "about": "“Method of detecting AZT resistance in HIV” (University of Pittsburgh, priority 2006, published 2007)", "key": {"[1]": {"tested_on": "HIVLAI RT 67N/70R/215F/509L", "assay": "Drug susceptibility assay in P4/R5 cells, site-directed mutant", "type": "cell-based, HIV-1"}, "[2]": {"tested_on": "HIVLAI RT 67N/70R/215F/371V", "assay": "Drug susceptibility assay in P4/R5 cells, site-directed mutant", "type": "cell-based, HIV-1", "protocol": "(§1) Drug susceptibility assays. NRTI susceptibility was determined in P4/R5 cells as described previously (Parikh, U. M., et al. 2005. Antimicrob. Agents Chemother. 49:1139-44). Briefly, threefold dilutions of inhibitor were added to P4/R5 cells in triplicate and cells were infected with an amount of virus that produced 100 relative units of light (RLU) in no drug, virus control wells. After 48 hours, the cells were lysed (Gal-Screen; Tropix/Applied Biosystems, Foster City, Calif.) and the RLU was measured using a ThermoLabSystems luminometer (Waltham, Mass.). The IC50 and fold-resistance were calculated as described above. IC50 values from at least three independent experiments were log10 transformed and compared for statistically significant differences using the two-sample Student's t test.\n(§2) Construction of mutant recombinant HIV-1. Mutant recombinant plasmid clones of virus were generated by oligonucleotide site-directed mutagenesis as described previously (Shi, C., and J. W. Mellors. 1997. A recombinant retroviral system for rapid […] analysis of human immunodeficiency virus type 1 susceptibility to reverse transcriptase inhibitors. Antimicrob. Agents Chemother. 41:2781-5), using the p6HRT-MO plasmid. p6HRT-MO contains the entire RT and protease coding sequence as previously described (Le Grice, S. F., and F. Gruninger-Leitch. 1990. Rapid purification of homodimer and heterodimer HIV-1 reverse transcriptase by metal chelate affinity chromatography. Eur. J. Biochem. 187:307-14) and four silent restriction sites (Xma I, Mlu I, Xba I, and NgoM IV from the 5′ to 3′ end of RT at codons 14, 358, 490 and 554, respectively). After site-directed mutagenesis (QIAamp kit, QIAGEN, Valencia, Calif.), the mutated RT was ligated into pxxHIV-1LAI MO that contains the entire genome of HIV-1LAI and the same silent restriction sites as p6HRT-MO. Infectious virus was generated by electroporating the mutated xxHIV-1LAI MO plasmid into MT-2 cells as described above. All mutations in recombinant viruses were confirmed by full-length sequencing of the entire RT coding region."}, "[3]": {"tested_on": "HIVLAI RT 67N/70R/215I/371V", "assay": "Drug susceptibility assay in P4/R5 cells, site-directed mutant", "type": "cell-based, HIV-1", "protocol": "as §1, §2"}, "[4]": {"tested_on": "HIVLAI RT 67N/70R/215I/509L", "assay": "Drug susceptibility assay in P4/R5 cells, site-directed mutant", "type": "cell-based, HIV-1", "protocol": "as §1, §2"}, "HIVLAI RT 67N/70R/215I": {"tested_on": "HIVLAI RT 67N/70R/215I", "assay": "Drug susceptibility assay in P4/R5 cells, site-directed mutant", "type": "cell-based, HIV-1", "protocol": "as §1, §2"}, "HIVLAI RT 67N/70R/371V": {"tested_on": "HIVLAI RT 67N/70R/371V", "assay": "Drug susceptibility assay in P4/R5 cells, site-directed mutant", "type": "cell-based, HIV-1", "protocol": "as §1, §2"}, "HIVLAI RT 67N/70R/509L": {"tested_on": "HIVLAI RT 67N/70R/509L", "assay": "Drug susceptibility assay in P4/R5 cells, site-directed mutant", "type": "cell-based, HIV-1", "protocol": "as §1, §2"}, "HIVLAI RT A371V/Q509L": {"tested_on": "HIVLAI RT A371V/Q509L", "assay": "Drug susceptibility assay in P4/R5 cells, site-directed mutant", "type": "cell-based, HIV-1", "protocol": "as §1, §2"}, "HIVLAI RT A371V": {"tested_on": "HIVLAI RT A371V", "assay": "Drug susceptibility assay in P4/R5 cells, site-directed mutant", "type": "cell-based, HIV-1", "protocol": "as §1, §2"}, "[5]": {"tested_on": "HIVLAI RT D67N/K70R/A371V/Q509L", "assay": "Drug susceptibility assay in P4/R5 cells, site-directed mutant", "type": "cell-based, HIV-1", "protocol": "as §1, §2"}, "[6]": {"tested_on": "HIVLAI RT D67N/K70R/T215F/A371V/Q509L", "assay": "Drug susceptibility assay in P4/R5 cells, site-directed mutant", "type": "cell-based, HIV-1", "protocol": "as §1, §2"}, "[7]": {"tested_on": "HIVLAI RT D67N/K70R/T215F", "assay": "Drug susceptibility assay in P4/R5 cells, site-directed mutant", "type": "cell-based, HIV-1", "protocol": "as §1, §2"}, "[8]": {"tested_on": "HIVLAI RT D67N/K70R/T215I/A371V/Q509L", "assay": "Drug susceptibility assay in P4/R5 cells, site-directed mutant", "type": "cell-based, HIV-1", "protocol": "as §1, §2"}, "HIVLAI RT D67N/K70R": {"tested_on": "HIVLAI RT D67N/K70R", "assay": "Drug susceptibility assay in P4/R5 cells, site-directed mutant", "type": "cell-based, HIV-1", "protocol": "as §1, §2"}, "HIVLAI RT Q509L": {"tested_on": "HIVLAI RT Q509L", "assay": "Drug susceptibility assay in P4/R5 cells, site-directed mutant", "type": "cell-based, HIV-1", "protocol": "as §1, §2"}, "[9]": {"tested_on": "HIV-1 RT N3481 with \"classic\" TAMs", "conditions": "N3481 present with \"classic\" TAMs; cited from earlier work"}}, "data": [{"smiles": "Cc1cn([C@H]2C[C@H](N=[N+]=[N-])[C@@H](CO)O2)c(=O)[nH]c1=O", "note": "[AZT, 3′-azido-3′-dideoxythymidine]", "values": [{"measurement": "Fold-Resistance", "setting": "[1]; 67N/70R/215F/509L compared to wild-type", "value": 128, "unit": "fold"}, {"measurement": "IC50", "setting": "[1]; Human immunodeficiency virus 1, P4/R5, 67N/70R/215F/509L, mean ± SD", "value": "28 ± 17", "unit": "µM"}, {"measurement": "Fold-Resistance", "setting": "[2]; 67N/70R/215F/371V compared to wild-type", "value": 22, "unit": "fold"}, {"measurement": "IC50", "setting": "[2]; Human immunodeficiency virus 1, P4/R5, 67N/70R/215F/371V, mean ± SD", "value": "4.9 ± 2.9", "unit": "µM"}, {"measurement": "Fold-Resistance", "setting": "[3]; 67N/70R/215I/371V compared to wild-type", "value": 2.6, "unit": "fold"}, {"measurement": "IC50", "setting": "[3]; Human immunodeficiency virus 1, P4/R5, 67N/70R/215I/371V, mean ± SD", "value": "600 ± 300", "unit": "nM"}, {"measurement": "Fold-Resistance", "setting": "[4]; 67N/70R/215I/509L compared to wild-type", "value": 14, "unit": "fold"}, {"measurement": "IC50", "setting": "[4]; Human immunodeficiency virus 1, P4/R5, 67N/70R/215I/509L, mean ± SD", "value": "3000 ± 2200", "unit": "nM"}, {"measurement": "Fold-Resistance", "setting": "HIVLAI RT 67N/70R/215I; 67N/70R/215I compared to wild-type", "value": 1.3, "unit": "fold"}, {"measurement": "IC50", "setting": "HIVLAI RT 67N/70R/215I; Human immunodeficiency virus 1, P4/R5, 67N/70R/215I, mean ± SD", "value": "300 ± 200", "unit": "nM"}, {"measurement": "Fold-Resistance", "setting": "HIVLAI RT 67N/70R/371V; 67N/70R/371V compared to wild-type", "value": 6.4, "unit": "fold"}, {"measurement": "IC50", "setting": "HIVLAI RT 67N/70R/371V; Human immunodeficiency virus 1, P4/R5, 67N/70R/371V, mean ± SD", "value": "1400 ± 500", "unit": "nM"}, {"measurement": "Fold-Resistance", "setting": "HIVLAI RT 67N/70R/509L; 67N/70R/509L compared to wild-type", "value": 14, "unit": "fold"}, {"measurement": "IC50", "setting": "HIVLAI RT 67N/70R/509L; Human immunodeficiency virus 1, P4/R5, 67N/70R/509L, mean ± SD", "value": "3000 ± 1000", "unit": "nM"}, {"measurement": "Fold-Resistance", "setting": "HIVLAI RT A371V/Q509L; A371V/Q509L compared to wild-type", "value": 1.7, "unit": "fold"}, {"measurement": "IC50", "setting": "HIVLAI RT A371V/Q509L; Human immunodeficiency virus 1, P4/R5, A371V/Q509L, mean ± SD", "value": "300 ± 60", "unit": "nM"}, {"measurement": "Fold-Resistance", "setting": "HIVLAI RT A371V; A371V compared to wild-type", "value": 0.7, "unit": "fold"}, {"measurement": "IC50", "setting": "HIVLAI RT A371V; Human immunodeficiency virus 1, P4/R5, A371V, mean ± SD", "value": "200 ± 40", "unit": "nM"}, {"measurement": "Fold-Resistance", "setting": "[5]; 67N/70R/371V/509L compared to wild-type", "value": 39, "unit": "fold"}, {"measurement": "IC50", "setting": "[5]; Human immunodeficiency virus 1, P4/R5, 67N/70R/371V/509L, mean ± SD", "value": "9.1 ± 5.2", "unit": "µM"}, {"measurement": "Fold-Resistance", "setting": "[6]; 67N/70R/215F/371V/509L compared to wild-type", "value": 934, "unit": "fold"}, {"measurement": "IC50", "setting": "[6]; Human immunodeficiency virus 1, P4/R5, 67N/70R/215F/371V/509L, mean ± SD", "value": "203 ± 40", "unit": "µM"}, {"measurement": "Fold-Resistance", "setting": "[7]; 67N/70R/215F compared to wild-type", "value": 18, "unit": "fold"}, {"measurement": "IC50", "setting": "[7]; Human immunodeficiency virus 1, P4/R5, 67N/70R/215F, mean ± SD", "value": "3.8 ± 2.1", "unit": "µM"}, {"measurement": "Fold-Resistance", "setting": "[8]; 67N/70R/215I/371V/509L compared to wild-type", "value": 41, "unit": "fold"}, {"measurement": "IC50", "setting": "[8]; Human immunodeficiency virus 1, P4/R5, 67N/70R/215I/371V/509L, mean ± SD", "value": "9.4 ± 6.7", "unit": "µM"}, {"measurement": "Fold-Resistance", "setting": "HIVLAI RT D67N/K70R; 67N/70R compared to wild-type", "value": 4.6, "unit": "fold"}, {"measurement": "IC50", "setting": "HIVLAI RT D67N/K70R; Human immunodeficiency virus 1, P4/R5, 67N/70R, mean ± SD", "value": "1100 ± 600", "unit": "nM"}, {"measurement": "IC50", "setting": "HIVLAI RT Q509L; Human immunodeficiency virus 1, P4/R5, Q509L, mean ± SD", "value": "300 ± 200", "unit": "nM"}, {"measurement": "Fold-Resistance", "setting": "HIVLAI RT Q509L; Q509L compared to wild-type", "value": 1.3, "unit": "fold"}, {"measurement": "reduction of AZT susceptibility", "setting": "[9]", "value": 35, "unit": "fold"}]}]}
